Columns and labels:
[1] = test system: IL-17 production in plasmas; experiment: IL-17 production in plasmas of cytokine-stimulated normal mice; type: in vivo, C57BL/6J mice; conditions: 0.1 mg/mL suspension, 0.2 mL/head orally, single, 28 hours before IL-1 beta/IL-23 i.v.; blood 2 hours after cytokine
Protocol: Effects of test substances on IL-17 production in plasmas were assessed in normal mice. The assessment was performed according to Non Patent Literature 32. Nine-week old female C57BL/6J mice (Japan Charles River K. K.) were used as a test animal.
A mixed solution prepared by mixing Recombinant Mouse IL-1 beta/IL-1F2 Protein (R&D systems, INC.) and Recombinant Mouse IL-23 Protein (R&D systems, INC.) at a final concentration of 1.5 μg/mL was administered intravenously to all groups at the tail vein at a volume of 200 μL/head. Blood was collected 2 hours after the administration of cytokine solution.
Administration was performed 28 hours before the administration of cytokine solution. 0.5% (w/v) methyl cellulose (MC) and 0.1 mg/mL of a test substance suspended in 0.5% (w/v) MC were administered orally at a single volume of 0.2 mL/head to Vehicle group and a compound-administered group, respectively.
(§1) Blood was separated by centrifugation, and then the IL-17 concentration in plasma was measured with Quantikine (Registered trade mark) Mouse IL-17 ELISA Kit (R&D systems, Inc.).
The IL-17 concentration of Vehicle group was deemed to be 100%, and the IL-17 concentration percentage of the compound-administered group to the Vehicle group was calculated from the following equation.
%=a/b×100 a: IL-17 concentration of the compound-administered group b: IL-17 concentration of the Vehicle group

[2] = Metabolic stability in hepatocytes, dog; type: in vitro ADME; conditions: residual ratio of unreacted substance, 1×10^6 cells/mL
Protocol: A test solution was prepared by diluting 10 mM DMSO solution of a test substance with acetonitrile by 20 times.
Human and animal cryopreserved hepatocyte (BIOIVT; Human (IVT-X008000), Rat (IVT-M00005), Monkey (IVT-M00305), Dog (IVT-M00205)) were adjusted with William's Medium E (SIGMA; W1878) to 1×10^6 cells/mL of a cell suspension, which was then added to a 96-well plate. Then, 1% of the solution of a test substance prepared was added to the reaction system, and the metabolic reaction was initiated. At a designated time, 0.1% formic acid-acetonitrile was added thereto, and the reaction was terminated.
The sample after termination of the reaction was separated by centrifugation (1400 g, 20 min.), and then the supernatant was measured by LC/MS (UPLC-SQD (waters)) to calculate a residual ratio of unreacted substances.

[3] = test system: IL-17 production in plasmas; experiment: IL-17 production in plasmas of antigen-sensitized mice; type: in vivo, C57BL/6J mice; conditions: for IL-17 concentration in plasma, % of control, 0.3 mg/kg: 0.3 mg/kg orally once daily for 7 days; for IL-17 concentration in plasma, % of control, 0.3 mg/kg / IL-17 concentration in plasma, % of control, 1 mg/kg: MOG/CFA/PTX-sensitized mice, blood at day 8, Normal 0%, Vehicle 100%; for IL-17 concentration in plasma, % of control, 1 mg/kg: 1 mg/kg orally once daily for 7 days; for ED50: Mus musculus, 168 h, oral once daily for 7 days, antigen-sensitized mice, calculated from the 0.3 and 1 mg/kg groups, read-out: ED50 (dose where the IL-17 concentration was decreased by 50%)
Protocol: Effects of test substances on IL-17 production in plasmas were assessed in antigen-sensitized mice. Antigen sensitization was performed according to Non Patent Literature 31. Nine-week old female C57BL/6J mice (Japan Charles River K. K.) were used as a test animal.
An emulsion prepared by mixing 3 mg/mL of myelin oligodendrocyte glycoprotein (MOG; ANASPEC) and 4 mg/mL of complete Freund's adjuvant (CFA; Chondrex) in an equal ratio was administered subcutaneously to a mouse at the bilateral abdomens at a volume of 50 μL/site (day 1). 1 μg/mL of pertussis toxin (PTX; List Biological Laboratories) was administered intraperitoneally at a volume of 200 μL/head (day 1 and 3). Blood was collected at day 8.
Administration was performed once daily for 7 days after the administration of emulsion (day 1 to 7). 0.5% (w/v) methyl cellulose (MC) was administered orally at a volume of 10 mL/kg to Normal group (normal mice) and Vehicle group (antigen-sensitized mice), and 0.03 mg/mL or 0.1 mg/mL of a test substance suspended in 0.5% (w/v) MC was administered orally at a volume of 10 mL/kg to a compound-administered group.
as §1
The IL-17 concentration of Normal group was deemed to be 0% and that of Vehicle group was deemed to be 100%. The IL-17 concentration percentage (% of control) of the compound-administered group was calculated from the following equation.
% of control=(a−b)/(c−b)×100
a: IL-17 concentration of the compound-administered group b: IL-17 concentration of the Normal group c: IL-17 concentration of the Vehicle group
Then, a dose of compound where the IL-17 concentration was decreased by 50% (ED50) was calculated from the following equation.
ED50=10^(log(A/B)×(50−D)/(C−D)+log(B); provided that ED50=B in the case D=50, and ED50>B in the case D>50 A: dosed amount of the lower dose group (i.e. 0.3 mg/kg) B: dosed amount of the higher dose group (i.e. 1 mg/kg) C: % of control at the lower dose group D: % of control at the higher dose group

[4] = test system: CYP3A4; experiment: Potential for induction of CYP3A4 (Nuclear Receptor Activation Kit, DPX2 cells, reporter activity); type: in vitro ADME; conditions: 48 hours, % of positive control (rifampicin); for Potential for induction of CYP3A4, 3 μM: 3 μM compound; for Potential for induction of CYP3A4, 10 μM: 10 μM compound
Protocol: Potential for induction of CYP3A4 was evaluated with Nuclear Receptor Activation Kits (PURACYP; DPX2-96-002) according to protocols attached.
The following experiment was performed with substances accompanying Nuclear Receptor Activation Kits (PURACYP; DPX2-96-002).
A measurement method is specifically shown as follows. DPX2 cells were seeded on a 96-well plate and incubated with a CO2 incubator for 24 hours. […] The media on 96-well plate were removed with an aspirator 24 hours after seeding, and thereto was added the compound-supplemented medium which was prepared. CellTiter-Fluor was added to the medium 48 hours after the addition of compound, and the mixture was incubated with a CO2 incubator for 1 hour. Then, a cell viability was measured by the fluorometric method. ONE-Glo was added to the mixture, and the mixture was incubated with a CO2 incubator for 5 minutes. Then, the reporter activity was measured by luminescent determination. The induction ratio was calculated by comparing the resulting reporter activity with a DMSO control sample. % of positive control was calculated from the following equation.

Row | Metabolic stability in hepatocytes at 240 min., Dog [2] | Potential for induction of CYP3A4, 3 μM [4] | Potential for induction of CYP3A4, 10 μM [4] | Potential for induction of CYP3A4, 30 μM ([4]; 30 μM compound) | SMILES | IL-17 concentration (%) relative to Vehicle group [1] | IL-17 concentration in plasma, % of control, 0.3 mg/kg [3] | IL-17 concentration in plasma, % of control, 1 mg/kg [3] | ED50 [3]
1 | 78% | <10% | <10% | – | CC[C@H](C)C1=CN(C23CC(C(=O)O)(C2)C3)C(=O)N[C@@]1(C)c1ccc([C@@H]2C[C@H]2C(C)(C)C)c(Cl)c1 [Compound (2), 3-{(S)-5-((S)-sec-Butyl)-4-[4-((1R,2R)-2-tert-butyl-cyclopropyl)-3-chloro-phenyl]-4-methyl-2-oxo-3,4-dihydro-2H-pyrimidin-1-yl}bicyclo[1.1.1]pentane-1-carboxylic acid] | 67% | 85 (=C) % | 54 (=D) % | > 1 mg/kg
2 | 88% | <10% | <10% | <10% | CC(C)C1=CN(C23CC(C(=O)O)(C2)C3)C(=O)N[C@@]1(C)c1ccc([C@@H]2C[C@H]2C(C)(C)C)c(Cl)c1 [Compound (1), 3-{(S)-4-[4-((1R,2R)-2-tert-Butyl-cyclopropyl)-3-chloro-phenyl]-5-isopropyl-4-methyl-2-oxo-3,4-dihydro-2H-pyrimidin-1-yl}bicyclo[1.1.1]pentane-1-carboxylic acid] | 52% | 66 (=C) % | 24 (=D) % | 0.5 mg/kg
